Data on ten molecules can be found in US4788306A, “Fluorooxirane carboxylates as hypoglycemic agents” (American Home Products Corporation, priority 1987, dated 1988).

Usually IC50 stands for the concentration that gives 50% inhibition. For orientation: inhibition means the drop in the measured response relative to a control, in per cent.

Data set [1] concerns the target T1, carnitine palmitoyl transferase in liver mitochondria (Rattus norvegicus, UniProt P32198).
T1 construct: from tissue; host or cells: rat liver mitochondria
T1 sequence (P32198 1-773): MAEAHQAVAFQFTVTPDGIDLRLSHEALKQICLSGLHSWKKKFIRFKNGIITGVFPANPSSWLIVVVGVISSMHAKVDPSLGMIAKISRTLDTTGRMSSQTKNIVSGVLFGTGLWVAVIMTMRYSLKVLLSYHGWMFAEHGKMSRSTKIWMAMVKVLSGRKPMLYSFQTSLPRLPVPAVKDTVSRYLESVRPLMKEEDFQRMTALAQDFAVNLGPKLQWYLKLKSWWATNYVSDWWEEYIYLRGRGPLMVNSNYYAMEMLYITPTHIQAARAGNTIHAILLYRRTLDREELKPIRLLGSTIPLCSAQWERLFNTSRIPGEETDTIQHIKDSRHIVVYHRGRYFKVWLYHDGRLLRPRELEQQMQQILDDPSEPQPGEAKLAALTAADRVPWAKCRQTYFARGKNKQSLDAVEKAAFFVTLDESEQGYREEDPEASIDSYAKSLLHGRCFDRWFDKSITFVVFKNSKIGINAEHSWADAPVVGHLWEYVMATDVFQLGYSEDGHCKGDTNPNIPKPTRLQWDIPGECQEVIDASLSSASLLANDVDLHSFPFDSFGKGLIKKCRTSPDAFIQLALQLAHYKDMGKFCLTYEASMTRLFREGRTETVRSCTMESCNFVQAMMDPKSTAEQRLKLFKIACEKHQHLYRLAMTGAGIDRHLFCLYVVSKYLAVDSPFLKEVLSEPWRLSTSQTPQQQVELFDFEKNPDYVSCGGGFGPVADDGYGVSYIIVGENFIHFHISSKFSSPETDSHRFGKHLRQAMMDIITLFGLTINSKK
As to the kind of experiment: Inhibition of carnitine palmitoyl transferase activity in liver mitochondria. The class given is biochemical. The note with it: for inhibition at 0.05 µM / inhibition at 0.1 µM / inhibition at 0.5 µM / inhibition at 1 µM / inhibition at 2 µM / inhibition at 5 µM / inhibition at 10 µM / inhibition at 50 µM: read-out: % Inhibition ± SEM, liver; for inhibition at 0.1 µM: 0.10 μM; for inhibition at 0.5 µM: 0.50 μM. The protocol:
(§1) The following assay measures the ability of the compounds of the invention to inhibit the activity of carnitine palmitoyl transferase in liver and heart mitochondria.
(§2) According to this procedure, the following steps are carried out:
(§3) (1) Isolation of Mitochondria
(§4) (a) liver mitochondria: 5 g of liver from a 300 g rat is minced, homogenized with 40 ml (30 ml for heart mitochondria) of 0.25M sucrose, 10 mM Tris and 1 mM EDTA, pH 7.4 and centrifuged at 600 xg for 15 minutes. The decanted supernatant is centrifuged at 7,900 xg for 15 minutes. The resultant pellet is resuspended in 20 ml total (16 ml total for the heart mitochondria) of sucrose buffer and centrifuged 7,900 xg for 15 minutes. The pellet is then resuspended in 30 ml total (11 ml for heart mitochondria) of 0.15M KCl, 5 mM Tris.Cl, pH 7.4 and this is used as the enzyme source.
(§5) To 28 3 ml glass test tubes is added 350 μl of the following mixture:
(§6) 81 mg of FFA free albumin
(§7) 1.5 ml of 0.5 mM palmitoyl CoA
(§8) Then there are added to these test tubes 50 μl of water, 50 μl of 10 mM carnitine and 0.25 μCi^3 H-carnitine, and the tubes are placed in a 30° C. water bath.
(§9) (3) Mitochondrial Suspensions
(§10) Twelve plastic incubation tubes are prepared by adding the following to the tubes:
(§11) To each of the tubes, except 1 and 3, are added 30 μl of 200 mM ATP, 20 μl of 333 mM MgCl2 and 50 μl of 1.5 mg/ml CoA. 800 μl of mitochondria from step (1) above are added to each tube, and the tubes are incubated at room temperature for 20 minutes. The tubes are centrifuged at 7,900 xg for 3 minutes and the resultant pellet is resuspended in 1 ml chilled 150 mM KCl, 5 mM TRIS, pH 7.4.
(§12) 50 μl of mitochondrial suspension from step (3) above is added to the 28 tubes from step (2) as follows: (at 15 second intervals):
(§13) The tubes are incubated for 5 minutes at 30° C. and then there is added to each tube, at 15-second intervals, 50 μl of concentrated HCl, 1.45 ml water and 1 ml of n-butanol. The tubes are mixed, chilled in ice for 20 minutes and then centrifuged for 10 minutes at 2500 rpm to clarify the layers. Thereafter, 500 μl of the upper butanol layer of each tube is pipetted into 100 μl of water and 500 μl butanol saturated water, the tubes are mixed and chilled in ice for 20 minutes and centrifuged again for 10 minutes at 2500 rpm. 200 μl of the butanol layer of each tube is pipetted into a scintillation vial to which is added 10 ml of Aquasol, and the samples are counted in a Packard Tri-Carb Scintillation Counter.
(§14) The results are used to calculated the percentage of inhibition of carnitine palmitoyl transferase by the compounds tested.
When tested in the above assay using liver mitochondria alone, other compounds of the invention give the following results.

In data set [2] the target is T2, carnitine palmitoyl transferase in heart mitochondria (Rattus norvegicus, UniProt Q63704).
T2 construct: to obtain a heart mitochondria fraction; from tissue; host or cells: rat heart mitochondria
T2 sequence (Q63704 1-772): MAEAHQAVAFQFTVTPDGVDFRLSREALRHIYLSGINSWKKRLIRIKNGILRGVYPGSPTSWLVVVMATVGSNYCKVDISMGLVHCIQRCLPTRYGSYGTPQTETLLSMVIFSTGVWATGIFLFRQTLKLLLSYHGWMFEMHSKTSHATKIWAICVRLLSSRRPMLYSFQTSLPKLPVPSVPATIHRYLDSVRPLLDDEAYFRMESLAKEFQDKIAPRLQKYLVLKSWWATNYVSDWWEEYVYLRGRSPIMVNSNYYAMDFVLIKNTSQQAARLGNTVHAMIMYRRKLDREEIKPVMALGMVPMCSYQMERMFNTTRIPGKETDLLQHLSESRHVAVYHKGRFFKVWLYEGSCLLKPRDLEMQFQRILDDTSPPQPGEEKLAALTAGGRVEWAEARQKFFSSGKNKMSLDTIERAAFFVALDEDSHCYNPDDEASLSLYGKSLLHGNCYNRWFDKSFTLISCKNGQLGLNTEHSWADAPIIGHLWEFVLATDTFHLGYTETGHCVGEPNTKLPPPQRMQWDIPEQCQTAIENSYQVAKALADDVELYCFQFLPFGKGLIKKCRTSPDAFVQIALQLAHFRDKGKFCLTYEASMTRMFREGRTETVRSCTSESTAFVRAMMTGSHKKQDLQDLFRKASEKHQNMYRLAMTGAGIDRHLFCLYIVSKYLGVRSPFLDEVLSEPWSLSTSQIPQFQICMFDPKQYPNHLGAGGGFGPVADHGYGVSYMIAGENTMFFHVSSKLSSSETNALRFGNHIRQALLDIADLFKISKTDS
As to the kind of experiment: Inhibition of carnitine palmitoyl transferase activity in heart mitochondria. In kind it is biochemical. The note with it: for inhibition at 0.1 µM: 0.10 μM; for inhibition at 0.5 µM: 0.50 μM. The protocol:
as §1, §2, §3, §4
(b) heart mitochondria: four rat hearts are processed as described in step (a) above to obtain a heart mitochondria fraction.
as §5, §6, §7, §8, §9, §10, §11, §12, §13, §14

The conditions of data set [3]: Bachmann et al. 1984, Lee et al. 1982 and 1985; cited from earlier work.
Setting [4] is: Table 2 (Example 10), liver mitochondria alone, read-out: % Inhibition of Hepatic CPTase, IC50.
Setting [5] is: Table 1, liver mitochondria, ± SEM, read-out: IC50, liver.
The mark [6] stands for this setting: read-out: % Inhibition ± SEM, heart.
Where [7] appears, read: 50.0 μM, read-out: % Inhibition ± SEM, heart.
Setting [8] is: Example 9, second (untitled) table, liver mitochondria, read-out: Inhibition of Hepatic CPTase, IC50.
[9] abbreviates: at 50 μM, Example 9, second (untitled) table, read-out: % Maximal Inhibition of Cardiac CTPase at 50 μM.

Where a name gives a salt, the structure may show the parent alone. Read-outs that look alike come from different tables or passages of the source.

Take `COC(=O)C1(C(F)CCCCCOc2ccc(Cl)cc2)CO1` (single isomer, unassigned) [3 (isomer A), 2-[6-(4-chlorophenoxy)-1-fluorohexyl]-2-oxiranecarboxylic acid methyl ester]: the IC50 in data set [1] (setting [4]) was found to be 850 nM.

On to `COC(=O)C1(C(F)CCCCCOc2ccc(Cl)cc2)CO1` (single isomer, unassigned) [3 (isomer B), 2-[6-(4-Chlorophenoxy)-1-fluorohexyl]-2-oxiranecarboxylic acid methyl ester], for which, in data set [1] (setting [4]), the IC50 came out at 1750 nM.

With `COC(=O)C1(C(F)CCCCc2ccccc2)CO1` (single isomer, unassigned) [Example 1 (isomer A), 2-(1-Fluoro-5-phenylpentyl)-2-oxiranecarboxylic acid methyl ester], the IC50 in data set [1] (setting [4]) came out at 1080 nM.

With `COC(=O)C1(C(F)CCCCOc2ccc(Cl)cc2)CO1` (single isomer, unassigned) [Example 2 (isomer A), 2-[5-(4-Chlorophenoxy)-1-fluoropentyl]-2-oxiranecarboxylic acid methyl ester], in data set [1], the inhibition at 0.05 µM was 5 ± 3%, the inhibition at 0.1 µM amounted to 11 ± 5%, the inhibition at 0.5 µM was 23 ± 7% and the inhibition at 1 µM amounted to 61 ± 9%. In addition, in data set [1], the inhibition at 2 µM was 78 ± 7%, the inhibition at 5 µM stood at 79 ± 8%, the inhibition at 10 µM was 80 ± 9% and the inhibition at 50 µM is 82 ± 10%. The IC50 in data set [1] (setting [5]) came out at 970 ± 180 nM. Also, the IC50 in data set [1] (setting [4]) is 970 nM. Moreover, in data set [2] (setting [6]), the inhibition at 0.05 µM is 6 ± 5%, the inhibition at 0.1 µM turned out to be 17 ± 5%, the inhibition at 0.5 µM amounted to 18 ± 4% and the inhibition at 1 µM is 34 ± 3%. Moreover, in data set [2] (setting [6]), the inhibition at 2 µM came to 35 ± 3%, the inhibition at 5 µM amounted to 40 ± 4% and the inhibition at 10 µM was determined as 50 ± 2%. The inhibition at 50 µM in data set [2] (setting [7]) stood at 52 ± 4%.

As to `O=C(O)C1(C(F)CCCCOc2ccc(Cl)cc2)CO1` (single isomer, unassigned) [Example 4, 2-[5-(4-Chlorophenoxy)-1-fluoropentyl]-2-oxiranecarboxylic acid sodium salt], the IC50 in data set [1] (setting [4]) was determined as 500 nM.

`O=C(O)C1(C(F)CCCCCOc2ccc(Cl)cc2)CO1` (single isomer, unassigned) [Example 5, 2-[6-(4-Chlorophenoxy)-1-fluorohexyl]-2-oxiranecarboxylic acid sodium salt]: in data set [1] (setting [4]), the IC50 was determined as 520 nM.

Take `CCOC(=O)C1(CCCCCCOc2ccc(Cl)cc2)CO1` (stereo not drawn) [Compound A, 2-[6-(4-chlorophenoxy)hexyl]oxirane-2-carboxylic acid ethyl ester, reference compound]: in data set [1], the inhibition at 0.05 µM turned out to be 9 ± 7%, the inhibition at 0.1 µM worked out at 11 ± 6%, the inhibition at 0.5 µM worked out at 60 ± 7% and the inhibition at 1 µM worked out at 79 ± 2%. For the same molecule, in data set [1], the inhibition at 2 µM was found to be 82 ± 2%, the inhibition at 5 µM is 86 ± 3%, the inhibition at 10 µM turned out to be 83 ± 3% and the inhibition at 50 µM stood at 85 ± 2%. The IC50 in data set [1] (setting [8]) stood at 310 nM. Moreover, the IC50 in data set [1] (setting [5]) is 330 ± 40 nM. In addition, in data set [2] (setting [6]), the inhibition at 0.05 µM is 5 ± 6%, the inhibition at 0.1 µM is 8 ± 7%, the inhibition at 0.5 µM is 36 ± 10% and the inhibition at 1 µM stood at 38 ± 15%. Moreover, in data set [2] (setting [6]), the inhibition at 2 µM is 51 ± 15%, the inhibition at 5 µM is 68 ± 11% and the inhibition at 10 µM came to 81 ± 1%. The inhibition at 50 µM in data set [2] (setting [7]) is 84 ± 1%. Moreover, in data set [2] (Table 1, heart mitochondria, ± SEM), the IC50 amounted to 250 nM. In data set [2] (setting [9]), the inhibition at 50 µM turned out to be 85 ± 2%.

With `COC(=O)C1(C(F)(F)CCCCCOc2ccc(Cl)cc2)CO1` (stereo not drawn) [Example 7 (gem-difluoro compound), 2-[6-(4-Chlorophenoxy)-1,1-difluorohexyl]-2-oxiranecarboxylic acid methyl ester], the IC50 in data set [1] (setting [8]) turned out to be 350 nM. The inhibition at 50 µM in data set [2] (setting [9]) is 26 ± 4%.

As for `O=C(O)C1(C(F)(F)CCCCCOc2ccc(Cl)cc2)CO1` (stereo not drawn) [Example 8, 2-[6-(4-Chlorophenoxy)-1,1-difluorohexyl]-2-oxiranecarboxylic acid sodium salt], the IC50 in data set [1] (setting [8]) is 250 nM. In addition, the inhibition at 50 µM in data set [2] (setting [9]) was found to be 24 ± 6%.

On to `CCCCCCCCCCCCCCC1(C(=O)OC)CO1` (stereo not drawn) [methyl ester of 2-tetradecylglycidate], for which the “cardiac effects from chronic administration, in words” value in data set [3] is on record as “adverse cardiac effects”.
